Test results as given in PubChem BioAssay AID2060896 (Molecular Pharmacology Branch, DTP, NCI, 2025).

Tested on: 941728-121-R-J1-PDC complex spheroid viability
Test: Anticancer human tumor 941728-121-R-J1-PDC patient-derived lung adenocarcinoma cell line growth inhibition [RAS]
Conditions: for IC50: curve of first compound; for viability, T/C: stronger effect = lower value
Procedure, shortened: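 Agents were tested in combination matrices in half-log decrements from a top concentration at or near clinical Cmax (10 microM if undetermined). Targets were multi-cell spheroids of tumour lines plus HUVEC and MSC stromal cells.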
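Further: spheroids exposed to compounds for 7 days before readout.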
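Wherever viability, T/C is given: 100% = DMSO vehicle control viability.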

CCc1c2c(nc3ccc(O)cc13)-c1cc3c(c(=O)n1C2)COC(=O)[C@]3(O)CC + C=CC(=O)N1CCN(c2nc(OCC3CCCN3C)nc3c(F)c(-c4nc(N)cc(C)c4C(F)(F)F)c(Cl)cc23)C(C)C1
IC50 (second compound 0.00316 µM): < 0.949 nM | IC50 (second compound 0.01 µM): < 0.949 nM | IC50 (second compound 0.0316 µM): < 0.949 nM | IC50 (second compound 0.1 µM): < 0.949 nM | IC50 (second compound 0.316 µM): < 0.949 nM | IC50 (second compound 1 µM): < 0.949 nM | viability, T/C (second compound 0.00316 µM, first compound 0.000949 µM): 21.6% | viability, T/C (second compound 0.00316 µM, first compound 0.003 µM): 18.7% | viability, T/C (second compound 0.00316 µM, first compound 0.00949 µM): 14.7% | viability, T/C (second compound 0.00316 µM, first compound 0.03 µM): 13.7% | viability, T/C (second compound 0.00316 µM, first compound 0.0949 µM): 12.1% | viability, T/C (second compound 0.00316 µM, first compound 0.3 µM): 8.13% | viability, T/C (second compound 0.01 µM, first compound 0.000949 µM): 18.9% | viability, T/C (second compound 0.01 µM, first compound 0.003 µM): 15.6% | viability, T/C (second compound 0.01 µM, first compound 0.00949 µM): 20.6% | viability, T/C (second compound 0.01 µM, first compound 0.03 µM): 13.1% | viability, T/C (second compound 0.01 µM, first compound 0.0949 µM): 11.4% | viability, T/C (second compound 0.01 µM, first compound 0.3 µM): 7.95% | viability, T/C (second compound 0.0316 µM, first compound 0.000949 µM): 18.3% | viability, T/C (second compound 0.0316 µM, first compound 0.003 µM): 16.5% | viability, T/C (second compound 0.0316 µM, first compound 0.00949 µM): 13.8% | viability, T/C (second compound 0.0316 µM, first compound 0.03 µM): 15.1% | viability, T/C (second compound 0.0316 µM, first compound 0.0949 µM): 11.7% | viability, T/C (second compound 0.0316 µM, first compound 0.3 µM): 7.67% | viability, T/C (second compound 0.1 µM, first compound 0.000949 µM): 16.3% | viability, T/C (second compound 0.1 µM, first compound 0.003 µM): 17% | viability, T/C (second compound 0.1 µM, first compound 0.00949 µM): 15.1% | viability, T/C (second compound 0.1 µM, first compound 0.03 µM): 12.6% | viability, T/C (second compound 0.1 µM, first compound 0.0949 µM): 12.4% | viability, T/C (second compound 0.1 µM, first compound 0.3 µM): 8.11% | viability, T/C (second compound 0.316 µM, first compound 0.000949 µM): 18.3% | viability, T/C (second compound 0.316 µM, first compound 0.003 µM): 15.8% | viability, T/C (second compound 0.316 µM, first compound 0.00949 µM): 13.7% | viability, T/C (second compound 0.316 µM, first compound 0.03 µM): 12.2% | viability, T/C (second compound 0.316 µM, first compound 0.0949 µM): 11.7% | viability, T/C (second compound 0.316 µM, first compound 0.3 µM): 6.82% | viability, T/C (second compound 1 µM, first compound 0.000949 µM): 17.1% | viability, T/C (second compound 1 µM, first compound 0.003 µM): 15.4% | viability, T/C (second compound 1 µM, first compound 0.00949 µM): 13.8% | viability, T/C (second compound 1 µM, first compound 0.03 µM): 13.7% | viability, T/C (second compound 1 µM, first compound 0.0949 µM): 14.8% | viability, T/C (second compound 1 µM, first compound 0.3 µM): 7.83%

Nc1ccn(C2OC(CO)C(O)C2(F)F)c(=O)n1 (centres undefined) + C=CC(=O)N1CCN(c2nc(OCC3CCCN3C)nc3c(F)c(-c4nc(N)cc(C)c4C(F)(F)F)c(Cl)cc23)C(C)C1
IC50 (second compound 0.00316 µM): < 3.16 nM | IC50 (second compound 0.01 µM): < 3.16 nM | IC50 (second compound 0.0316 µM): < 3.16 nM | IC50 (second compound 0.1 µM): < 3.16 nM | IC50 (second compound 0.316 µM): < 3.16 nM | IC50 (second compound 1 µM): < 3.16 nM | viability, T/C (second compound 0.00316 µM, first compound 0.00316 µM): 17.8% | viability, T/C (second compound 0.00316 µM, first compound 0.01 µM): 14.8% | viability, T/C (second compound 0.00316 µM, first compound 0.0316 µM): 15.2% | viability, T/C (second compound 0.00316 µM, first compound 0.1 µM): 14% | viability, T/C (second compound 0.00316 µM, first compound 0.316 µM): 15.9% | viability, T/C (second compound 0.00316 µM, first compound 1 µM): 15.6% | viability, T/C (second compound 0.01 µM, first compound 0.00316 µM): 17.7% | viability, T/C (second compound 0.01 µM, first compound 0.01 µM): 14.7% | viability, T/C (second compound 0.01 µM, first compound 0.0316 µM): 16.3% | viability, T/C (second compound 0.01 µM, first compound 0.1 µM): 16.2% | viability, T/C (second compound 0.01 µM, first compound 0.316 µM): 14.5% | viability, T/C (second compound 0.01 µM, first compound 1 µM): 13.3% | viability, T/C (second compound 0.0316 µM, first compound 0.00316 µM): 14.9% | viability, T/C (second compound 0.0316 µM, first compound 0.01 µM): 15.6% | viability, T/C (second compound 0.0316 µM, first compound 0.0316 µM): 15.7% | viability, T/C (second compound 0.0316 µM, first compound 0.1 µM): 13.3% | viability, T/C (second compound 0.0316 µM, first compound 0.316 µM): 14.9% | viability, T/C (second compound 0.0316 µM, first compound 1 µM): 15.2% | viability, T/C (second compound 0.1 µM, first compound 0.00316 µM): 16.9% | viability, T/C (second compound 0.1 µM, first compound 0.01 µM): 13.9% | viability, T/C (second compound 0.1 µM, first compound 0.0316 µM): 15.4% | viability, T/C (second compound 0.1 µM, first compound 0.1 µM): 14.1% | viability, T/C (second compound 0.1 µM, first compound 0.316 µM): 12.1% | viability, T/C (second compound 0.1 µM, first compound 1 µM): 12.6% | viability, T/C (second compound 0.316 µM, first compound 0.00316 µM): 16.4% | viability, T/C (second compound 0.316 µM, first compound 0.01 µM): 16.1% | viability, T/C (second compound 0.316 µM, first compound 0.0316 µM): 15.9% | viability, T/C (second compound 0.316 µM, first compound 0.1 µM): 14.3% | viability, T/C (second compound 0.316 µM, first compound 0.316 µM): 15.8% | viability, T/C (second compound 0.316 µM, first compound 1 µM): 13.8% | viability, T/C (second compound 1 µM, first compound 0.00316 µM): 18.9% | viability, T/C (second compound 1 µM, first compound 0.01 µM): 15.8% | viability, T/C (second compound 1 µM, first compound 0.0316 µM): 15.8% | viability, T/C (second compound 1 µM, first compound 0.1 µM): 16.6% | viability, T/C (second compound 1 µM, first compound 0.316 µM): 14% | viability, T/C (second compound 1 µM, first compound 1 µM): 12.6%
